Measured values: patent US9493426B2, “Quinazolinone derivatives useful as FGFR kinase modulators” (priority 2013, dated 2016)

Assays:
[1] = molecular target: FGFR1 (h) (Homo sapiens, UniProt P11362); assay: FGFR1 (enzymatic assay), TR-FRET; format: biochemical
[2] = molecular target: FGFR2 (h) (Homo sapiens, UniProt P21802); assay: FGFR2 (enzymatic assay), TR-FRET; format: biochemical; conditions: 0.4 μM ATP; pIC50 = -log IC50 (M); read-out: FGFR 2 pIC50 (converted)
[3] = molecular target: FGFR3 (h) (Homo sapiens, UniProt P22607); assay: FGFR3 (enzymatic assay), TR-FRET; format: biochemical; conditions: 25 μM ATP; pIC50 = -log IC50 (M); read-out: FGFR3 pIC50 (converted)
[4] = molecular target: FGFR4 (h) (Homo sapiens, UniProt P22455); assay: FGFR4 (enzymatic assay), TR-FRET; format: biochemical; conditions: 5 μM ATP; pIC50 = -log IC50 (M); read-out: FGFR 4 pIC50 (converted)
[5] = molecular target: KDR (h) (Homo sapiens, UniProt P35968); assay: KDR (VEGFR2) (enzymatic assay), TR-FRET; format: biochemical; conditions: 3 μM ATP; pIC50 = -log IC50 (M); read-out: VEGFR KDR pIC50 (converted)
Protocol: KDR (VEGFR2) (Enzymatic Assay)
In a final reaction volume of 30 μL, KDR (h) (150 ng/ml) was incubated with 50 mM HEPES pH 7.5, 6 mM MnCl2, 1 mM DTT, 0.1 mM Na3VO4, 0.01% Triton-X-100, 500 nM Btn-Flt3 and 3 μM ATP in the presence of compound (1% DMSO final). After incubation for 120 minutes at room temperature the reaction was stopped with 2.27 nM EU-anti P-Tyr, 7 mM EDTA, 31.25 nM SA-XL-665 and 0.02% BSA which was present for 60 minutes at room temperature. Time-Resolved Fluorescence Resonance Energy Transfer (TR-FRET) signal (ex340 nm. Em 620 nm, em 655 nm) was measured afterwards and results are expressed in RFU (Relative Fluorescence Units). In this assay, the inhibitory effect of different compound concentrations (range 10 μM to 0.1 nM) was determined and used to calculate an IC50 (M) and pIC50 (−log IC50) value.

[6] = molecular target: T1, Ba/F3-FGFR1-transfected cells (Homo sapiens, UniProt P11362); assay: Ba/F3-FGFR1 (minus IL3 or plus IL3) cellular proliferation assay; format: cell-based; conditions: 24 hours, Alamar Blue
T1 construct: other: minus IL3; 24 hours, Alamar Blue
Protocol: Ba/F3-FGFR1 (Minus IL3 or Plus IL3) (Cellular Proliferation Assay)
(§1) In a 384 well plate, 100 nl of compound dilution in DMSO was sprayed before adding 50 μl cell culture medium (phenol red free RPMI-1640, 10% FBS, 2 mM L-Glutamine and 50 μg/ml Gentamycin) containing 20000 cells per well of Ba/F3-FGFR1-transfected cells. Cells were put in an incubator at 37° C. and 5% CO2. After 24 hours, 10 μl of Alamar Blue solution (0.5 mM K3Fe(CN)6, 0.5 mM K4Fe(CN)6, 0.15 mM Resazurin and 100 mM Phosphate Buffer) was added to the wells, incubated for 4 hours at 37° C. and 5% CO2 before RFU's (Relative Fluorescence Units) (ex. 540 nm., em. 590 nm.) were measured in a fluorescence plate reader.
(§2) In this assay, the inhibitory effect of different compound concentrations (range 10 μM to 0.1 nM) was determined and used to calculate an IC50 (M) and pIC50 (−log IC50) value. As a counterscreen the same experiment was performed in the presence of 10 ng/ml murine IL3.

[7] = molecular target: T2, Ba/F3-FGFR3-transfected cells (Homo sapiens, UniProt P22607, cells depend on it, form not given); assay: Ba/F3-FGFR3 (minus IL3 or plus IL3) cellular proliferation assay; format: cell-based; conditions: 24 hours, Alamar Blue
T2 construct: BAF3-FGFR3 (MIN IL3 pIC50); other: minus IL3; 24 hours, Alamar Blue
Protocol: Ba/F3-FGFR3 (Minus IL3 or Plus IL3) (Cellular Proliferation Assay)
as §1, with “Ba/F3-FGFR3-transfected” for “Ba/F3-FGFR1-transfected”
as §2

[8] = molecular target: T3, Ba/F3-KDR-transfected cells (Homo sapiens, UniProt P35968, cells depend on it, form not given); assay: Ba/F3-KDR (minus IL3 or plus IL3) cellular proliferation assay; format: cell-based; conditions: 24 hours, Alamar Blue
T3 construct: BAF3-KDR (MIN IL3 pIC50); other: minus IL3; 24 hours, Alamar Blue
Protocol: Ba/F3-KDR (Minus IL3 or Plus IL3) (Cellular Proliferation Assay)
as §1, with “Ba/F3-KDR-transfected” for “Ba/F3-FGFR1-transfected”
as §2

[9] = molecular target: Ba/F3-FGFR4-transfected cells (Homo sapiens, UniProt P22455, cells depend on it, form not given); assay: Ba/F3-FGFR4 cellular proliferation assay; format: cell-based; conditions: 24 hours, Alamar Blue
Protocol: Ba/F3-FGFR4 (Cellular Proliferation Assay)
as §1, with “Ba/F3-FGFR4-transfected” for “Ba/F3-FGFR1-transfected”
In this assay, the inhibitory effect of different compound concentrations (range 10 μM to 0.1 nM) was determined and used to calculate an IC50 (M) and pIC50 (−log IC50) value.

[10] = molecular target: T4, FGFR1 (Homo sapiens, UniProt P11362); assay: Enzyme binding assay (KINOMEscan) FGFR1; conditions: FGFR1_pKd, pKd = -log Kd (M)
T4 construct: purchased DiscoveRx Corporation
Protocol: (§3) Enzyme Binding Assays (KINOMEscan®)
(§4) Kinase enzyme binding affinities of compounds disclosed herein were determined using the KINOMEscan® technology performed by DiscoveRx Corporation, San Diego, Calif., USA (www.kinomescan.com).

[11] = molecular target: T5, FGFR2 (Homo sapiens, UniProt P21802); assay: Enzyme binding assay (KINOMEscan) FGFR2; conditions: pKd = -log Kd (M), read-out: FGFR2_pKd (converted)
T5 construct: purchased DiscoveRx Corporation
Protocol: as §3, §4

[12] = molecular target: T6, FGFR3 (Homo sapiens, UniProt P22607); assay: Enzyme binding assay (KINOMEscan) FGFR3; conditions: pKd = -log Kd (M), read-out: FGFR3_pKd (converted)
T6 construct: purchased DiscoveRx Corporation
Protocol: as §3, §4

[13] = molecular target: T7, FGFR4 (Homo sapiens, UniProt P22455); assay: Enzyme binding assay (KINOMEscan) FGFR4; conditions: pKd = -log Kd (M), read-out: FGFR4_pKd (converted)
T7 construct: purchased DiscoveRx Corporation
Protocol: as §3, §4

[14] = molecular target: T8, VEGFR2 (Homo sapiens, UniProt P35968); assay: Enzyme binding assay (KINOMEscan) VEGFR2; conditions: pKd = -log Kd (M), read-out: VEGFR2_pKd (converted)
T8 construct: purchased DiscoveRx Corporation
Protocol: as §3, §4

T5 sequence (P21802 22-821): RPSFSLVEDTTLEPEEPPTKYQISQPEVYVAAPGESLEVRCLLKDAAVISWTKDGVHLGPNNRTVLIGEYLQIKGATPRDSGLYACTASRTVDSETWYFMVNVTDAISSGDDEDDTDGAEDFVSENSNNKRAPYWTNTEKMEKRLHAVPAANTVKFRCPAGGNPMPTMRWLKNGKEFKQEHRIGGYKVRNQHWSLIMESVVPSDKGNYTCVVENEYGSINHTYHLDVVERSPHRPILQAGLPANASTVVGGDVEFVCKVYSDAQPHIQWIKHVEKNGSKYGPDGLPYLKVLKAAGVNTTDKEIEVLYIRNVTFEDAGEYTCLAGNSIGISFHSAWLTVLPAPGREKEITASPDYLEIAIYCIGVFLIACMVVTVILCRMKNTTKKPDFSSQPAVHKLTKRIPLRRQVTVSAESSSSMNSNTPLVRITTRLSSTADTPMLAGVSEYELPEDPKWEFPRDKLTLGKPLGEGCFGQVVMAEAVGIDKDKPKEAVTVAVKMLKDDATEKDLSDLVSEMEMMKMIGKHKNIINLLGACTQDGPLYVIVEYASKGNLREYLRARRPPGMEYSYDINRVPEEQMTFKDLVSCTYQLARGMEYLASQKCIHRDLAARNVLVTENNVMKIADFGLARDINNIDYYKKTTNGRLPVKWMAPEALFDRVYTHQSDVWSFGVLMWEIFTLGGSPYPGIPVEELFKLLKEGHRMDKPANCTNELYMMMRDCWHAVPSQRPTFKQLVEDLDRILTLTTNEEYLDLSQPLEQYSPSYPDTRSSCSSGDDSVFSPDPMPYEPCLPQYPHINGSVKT
Chain of FGFR2 (h) (P21802 22-821): as above
T2 sequence (P22607 whole entry, looked up, change not shown): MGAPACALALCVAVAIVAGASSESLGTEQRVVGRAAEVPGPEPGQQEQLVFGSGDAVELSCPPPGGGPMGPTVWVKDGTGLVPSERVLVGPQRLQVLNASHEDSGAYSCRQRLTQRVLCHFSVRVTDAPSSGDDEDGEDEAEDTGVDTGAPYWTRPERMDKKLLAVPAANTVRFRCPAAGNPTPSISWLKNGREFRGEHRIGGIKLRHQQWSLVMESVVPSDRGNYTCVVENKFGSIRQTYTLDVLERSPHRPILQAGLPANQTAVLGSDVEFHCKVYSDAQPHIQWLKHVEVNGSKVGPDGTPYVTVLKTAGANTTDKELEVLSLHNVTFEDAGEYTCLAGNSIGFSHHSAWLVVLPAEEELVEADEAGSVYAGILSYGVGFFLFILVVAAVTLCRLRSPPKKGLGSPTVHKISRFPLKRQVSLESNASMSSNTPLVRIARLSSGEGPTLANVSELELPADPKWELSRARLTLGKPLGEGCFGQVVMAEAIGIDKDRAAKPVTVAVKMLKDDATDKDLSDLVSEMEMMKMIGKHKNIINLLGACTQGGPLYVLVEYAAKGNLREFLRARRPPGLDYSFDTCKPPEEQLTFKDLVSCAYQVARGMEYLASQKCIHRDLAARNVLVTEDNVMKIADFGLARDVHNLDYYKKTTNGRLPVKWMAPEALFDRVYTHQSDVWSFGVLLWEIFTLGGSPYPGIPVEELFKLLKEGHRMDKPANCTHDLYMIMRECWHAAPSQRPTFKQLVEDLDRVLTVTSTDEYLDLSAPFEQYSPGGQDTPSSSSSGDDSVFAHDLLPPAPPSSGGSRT
Chain of FGFR3 (h) (P22607 23-806): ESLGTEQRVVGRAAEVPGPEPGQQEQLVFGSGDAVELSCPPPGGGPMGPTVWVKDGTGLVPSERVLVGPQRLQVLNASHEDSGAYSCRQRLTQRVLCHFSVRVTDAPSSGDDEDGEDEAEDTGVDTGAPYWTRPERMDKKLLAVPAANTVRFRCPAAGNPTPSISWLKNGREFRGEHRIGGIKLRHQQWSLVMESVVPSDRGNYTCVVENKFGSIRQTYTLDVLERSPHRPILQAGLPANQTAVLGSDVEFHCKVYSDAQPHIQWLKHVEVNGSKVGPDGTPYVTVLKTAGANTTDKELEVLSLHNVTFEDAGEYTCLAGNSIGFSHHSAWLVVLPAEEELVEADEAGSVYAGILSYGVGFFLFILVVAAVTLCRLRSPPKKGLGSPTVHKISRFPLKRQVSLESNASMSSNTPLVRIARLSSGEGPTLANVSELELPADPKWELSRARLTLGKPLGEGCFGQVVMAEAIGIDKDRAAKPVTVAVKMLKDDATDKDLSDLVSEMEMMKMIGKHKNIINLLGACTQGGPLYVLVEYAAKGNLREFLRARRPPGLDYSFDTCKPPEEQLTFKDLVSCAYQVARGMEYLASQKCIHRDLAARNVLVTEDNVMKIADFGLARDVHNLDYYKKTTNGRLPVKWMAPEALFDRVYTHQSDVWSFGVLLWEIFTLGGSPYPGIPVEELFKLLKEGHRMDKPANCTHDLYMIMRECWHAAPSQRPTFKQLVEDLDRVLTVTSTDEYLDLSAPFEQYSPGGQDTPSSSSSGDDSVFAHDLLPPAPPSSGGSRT
T6 sequence (P22607 23-806): as above
T8 sequence (P35968 20-1356): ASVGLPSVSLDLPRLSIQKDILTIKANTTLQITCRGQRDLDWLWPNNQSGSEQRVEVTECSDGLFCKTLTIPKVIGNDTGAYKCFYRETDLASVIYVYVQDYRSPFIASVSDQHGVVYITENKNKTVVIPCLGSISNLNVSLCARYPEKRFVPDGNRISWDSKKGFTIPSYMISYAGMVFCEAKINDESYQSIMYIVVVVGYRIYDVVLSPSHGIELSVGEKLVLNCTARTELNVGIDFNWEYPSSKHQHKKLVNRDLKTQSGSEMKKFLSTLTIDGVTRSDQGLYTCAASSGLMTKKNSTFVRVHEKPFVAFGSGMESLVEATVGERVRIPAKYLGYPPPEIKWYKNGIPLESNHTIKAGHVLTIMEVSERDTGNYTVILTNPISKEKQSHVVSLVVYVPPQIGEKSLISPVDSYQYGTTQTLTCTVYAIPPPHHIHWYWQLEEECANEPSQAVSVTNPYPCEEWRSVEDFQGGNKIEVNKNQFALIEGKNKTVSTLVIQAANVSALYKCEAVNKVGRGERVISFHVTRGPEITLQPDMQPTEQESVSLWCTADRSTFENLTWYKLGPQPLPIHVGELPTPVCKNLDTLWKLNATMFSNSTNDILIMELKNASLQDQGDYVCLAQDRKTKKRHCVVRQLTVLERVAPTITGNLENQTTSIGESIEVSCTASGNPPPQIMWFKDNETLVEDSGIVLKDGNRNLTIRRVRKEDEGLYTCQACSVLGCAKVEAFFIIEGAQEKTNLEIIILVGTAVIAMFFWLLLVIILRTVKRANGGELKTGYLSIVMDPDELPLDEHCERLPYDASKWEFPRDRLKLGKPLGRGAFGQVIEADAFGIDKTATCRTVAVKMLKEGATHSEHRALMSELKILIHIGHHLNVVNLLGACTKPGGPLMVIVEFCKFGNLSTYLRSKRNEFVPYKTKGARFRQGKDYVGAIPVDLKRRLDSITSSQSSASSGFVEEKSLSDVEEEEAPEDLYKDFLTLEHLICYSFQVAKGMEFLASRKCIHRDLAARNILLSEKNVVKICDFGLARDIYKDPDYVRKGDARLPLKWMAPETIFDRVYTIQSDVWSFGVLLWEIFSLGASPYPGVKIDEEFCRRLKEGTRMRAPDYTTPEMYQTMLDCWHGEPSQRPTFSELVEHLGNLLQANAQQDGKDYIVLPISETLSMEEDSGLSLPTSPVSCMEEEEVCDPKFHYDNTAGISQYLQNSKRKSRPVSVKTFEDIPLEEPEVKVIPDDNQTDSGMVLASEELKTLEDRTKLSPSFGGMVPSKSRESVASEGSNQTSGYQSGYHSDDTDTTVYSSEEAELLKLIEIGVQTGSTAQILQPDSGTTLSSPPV
Chain of KDR (h) (P35968 20-1356): as above
Chain of FGFR1 (h) (P11362 22-822): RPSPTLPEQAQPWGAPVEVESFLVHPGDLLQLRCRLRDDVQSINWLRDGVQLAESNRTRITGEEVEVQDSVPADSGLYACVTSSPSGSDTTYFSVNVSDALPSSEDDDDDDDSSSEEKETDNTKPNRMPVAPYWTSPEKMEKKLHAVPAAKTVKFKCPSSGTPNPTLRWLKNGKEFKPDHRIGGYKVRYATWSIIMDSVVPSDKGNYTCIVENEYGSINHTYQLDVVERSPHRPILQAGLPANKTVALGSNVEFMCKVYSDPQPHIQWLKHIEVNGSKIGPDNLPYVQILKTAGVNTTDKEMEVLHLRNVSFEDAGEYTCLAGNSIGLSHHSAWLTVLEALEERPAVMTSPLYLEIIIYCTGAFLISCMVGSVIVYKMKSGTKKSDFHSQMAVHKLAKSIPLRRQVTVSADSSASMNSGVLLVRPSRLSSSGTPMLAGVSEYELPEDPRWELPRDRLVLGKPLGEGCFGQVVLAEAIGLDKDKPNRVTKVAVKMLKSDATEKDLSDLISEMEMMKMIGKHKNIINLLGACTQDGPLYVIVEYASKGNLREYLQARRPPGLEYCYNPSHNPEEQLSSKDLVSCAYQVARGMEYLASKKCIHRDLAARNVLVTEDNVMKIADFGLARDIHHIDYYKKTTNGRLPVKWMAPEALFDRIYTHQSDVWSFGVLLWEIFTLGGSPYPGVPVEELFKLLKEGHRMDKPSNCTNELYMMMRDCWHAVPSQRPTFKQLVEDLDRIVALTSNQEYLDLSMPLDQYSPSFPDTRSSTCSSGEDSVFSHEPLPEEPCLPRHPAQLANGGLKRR
T4 sequence (P11362 22-822): as above

| SMILES | IC50 [1] [nM] | IC50 [2] [M] | IC50 [3] [M] | IC50 [4] [M] | IC50 [5] [M] | BAF3-FGFR1 (MIN IL3 pIC50) [6] | BAF3-FGFR3 (MIN IL3 pIC50) [7] | BAF3-KDR (MIN IL3 pIC50) [8] | BAF3-FGFR4 (pIC50) [9] | Kd [10] [M] | Kd [11] [M] | Kd [12] [M] | Kd [13] [M] | Kd [14] [M] | melting point [°C] |
| --- | --- | --- | --- | --- | --- | --- | --- | --- | --- | --- | --- | --- | --- | --- | --- |
| COc1cc(OC)cc(N(CCO)c2ccc3ncn(-c4ccccc4)c(=O)c3c2)c1 [Compound 7] | 631 | 3.98e-07 | 3.16e-07 | 3.98e-06 | > 1e-06 | <5 | <5 | <5 | <5 | > 1e-06 | > 1e-06 | > 1e-06 | > 1e-06 | > 1e-06 | 171 |
| COc1cc(OC)c(F)c(N(CCNC(C)C)c2ccc3ncn(-c4cnn(C)c4)c(=O)c3c2)c1F [Compound 19] | 5.01 | 1.58e-08 | 1.58e-08 | 2e-08 | 1.26e-07 | 8.8 | 8.6 | 6.2 | 8.2 | 1.58e-09 | 5.01e-09 | 5.01e-09 | 5.01e-09 | 1.58e-08 | 162 |
